Experiments:
[1] = target: T1, Gamma-aminobutyric acid receptor subunit alpha-3/beta-3/gamma-2 (Homo sapiens, UniProt P34903+P18507+P28472); experiment: Binding affinity for human recombinant gamma-aminobutyric-acid (GABA) A receptor alpha-3-beta-3-gamma-2
T1 sequence (P34903 whole entry): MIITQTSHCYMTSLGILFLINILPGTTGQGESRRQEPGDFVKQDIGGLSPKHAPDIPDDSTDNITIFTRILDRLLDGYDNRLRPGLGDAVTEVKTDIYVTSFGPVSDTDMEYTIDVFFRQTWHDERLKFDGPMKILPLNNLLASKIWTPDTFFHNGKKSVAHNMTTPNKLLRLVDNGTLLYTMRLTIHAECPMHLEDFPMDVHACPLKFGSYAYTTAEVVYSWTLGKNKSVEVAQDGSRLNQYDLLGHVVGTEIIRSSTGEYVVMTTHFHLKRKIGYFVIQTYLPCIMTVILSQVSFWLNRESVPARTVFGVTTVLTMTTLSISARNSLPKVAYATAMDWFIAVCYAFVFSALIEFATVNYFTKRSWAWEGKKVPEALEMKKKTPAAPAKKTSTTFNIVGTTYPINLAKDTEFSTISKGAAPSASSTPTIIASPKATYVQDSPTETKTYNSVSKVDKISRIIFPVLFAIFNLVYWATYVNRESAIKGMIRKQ
T1 sequence (P18507 whole entry): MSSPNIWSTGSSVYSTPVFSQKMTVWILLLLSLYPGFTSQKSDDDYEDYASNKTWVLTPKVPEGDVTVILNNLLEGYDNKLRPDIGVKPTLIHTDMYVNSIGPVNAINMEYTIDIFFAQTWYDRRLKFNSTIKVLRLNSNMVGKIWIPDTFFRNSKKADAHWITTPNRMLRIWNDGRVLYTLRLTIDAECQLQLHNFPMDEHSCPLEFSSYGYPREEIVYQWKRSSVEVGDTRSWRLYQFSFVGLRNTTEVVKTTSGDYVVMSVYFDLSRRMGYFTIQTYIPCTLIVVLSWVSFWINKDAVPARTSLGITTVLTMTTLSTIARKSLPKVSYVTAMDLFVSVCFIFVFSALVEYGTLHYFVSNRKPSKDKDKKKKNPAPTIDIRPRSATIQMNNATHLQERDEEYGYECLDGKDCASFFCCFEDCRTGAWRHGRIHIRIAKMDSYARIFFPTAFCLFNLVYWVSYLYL
T1 sequence (P28472 whole entry): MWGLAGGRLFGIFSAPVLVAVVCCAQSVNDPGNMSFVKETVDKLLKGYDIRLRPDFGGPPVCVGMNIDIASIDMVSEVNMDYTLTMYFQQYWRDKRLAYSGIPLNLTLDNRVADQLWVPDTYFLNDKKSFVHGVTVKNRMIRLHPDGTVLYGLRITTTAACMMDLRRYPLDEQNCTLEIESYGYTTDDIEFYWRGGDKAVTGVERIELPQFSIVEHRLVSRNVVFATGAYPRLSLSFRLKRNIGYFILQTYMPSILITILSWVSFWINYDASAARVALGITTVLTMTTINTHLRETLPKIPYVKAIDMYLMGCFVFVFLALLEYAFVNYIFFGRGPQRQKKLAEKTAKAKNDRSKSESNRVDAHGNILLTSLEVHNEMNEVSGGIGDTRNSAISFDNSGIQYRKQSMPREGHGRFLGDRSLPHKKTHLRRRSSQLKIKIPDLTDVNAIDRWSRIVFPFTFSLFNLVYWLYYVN

[2] = target: T2, GABA-A receptor; alpha-5/beta-3/gamma-2 (Homo sapiens, UniProt P31644+P18507+P28472); experiment: Binding affinity for human recombinant gamma-aminobutyric-acid (GABA) A receptor alpha-5-beta-3-gamma-2
T2 sequence (P31644 whole entry): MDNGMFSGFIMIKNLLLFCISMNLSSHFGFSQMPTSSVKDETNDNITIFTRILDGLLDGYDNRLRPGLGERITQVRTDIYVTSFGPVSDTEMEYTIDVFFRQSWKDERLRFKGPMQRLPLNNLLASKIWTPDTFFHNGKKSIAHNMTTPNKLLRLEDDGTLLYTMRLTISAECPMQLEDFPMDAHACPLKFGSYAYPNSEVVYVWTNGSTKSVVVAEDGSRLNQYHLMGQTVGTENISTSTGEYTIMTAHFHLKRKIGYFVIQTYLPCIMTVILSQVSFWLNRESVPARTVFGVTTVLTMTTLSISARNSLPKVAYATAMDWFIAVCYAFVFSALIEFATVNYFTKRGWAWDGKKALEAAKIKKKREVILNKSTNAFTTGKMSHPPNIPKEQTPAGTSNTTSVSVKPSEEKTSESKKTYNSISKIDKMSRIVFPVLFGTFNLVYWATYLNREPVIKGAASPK
T2 sequence (P18507 whole entry): T1 sequence (P18507 whole entry)
T2 sequence (P28472 whole entry): T1 sequence (P28472 whole entry)

[3] = target: Gamma-aminobutyric acid receptor subunit alpha-6/beta-3/gamma-2 (Homo sapiens, UniProt Q16445+P18507+P28472); experiment: Binding affinity for human recombinant gamma-aminobutyric-acid (GABA) A receptor alpha-6-beta-3-gamma-2
[4] = target: T3, GABA-A receptor; alpha-2/beta-3/gamma-2 (Homo sapiens, UniProt P47869+P18507+P28472); experiment: Binding affinity to human recombinant gamma-aminobutyric-acid (GABA) A receptor alpha-2-beta-3-gamma-2
T3 sequence (P47869 whole entry): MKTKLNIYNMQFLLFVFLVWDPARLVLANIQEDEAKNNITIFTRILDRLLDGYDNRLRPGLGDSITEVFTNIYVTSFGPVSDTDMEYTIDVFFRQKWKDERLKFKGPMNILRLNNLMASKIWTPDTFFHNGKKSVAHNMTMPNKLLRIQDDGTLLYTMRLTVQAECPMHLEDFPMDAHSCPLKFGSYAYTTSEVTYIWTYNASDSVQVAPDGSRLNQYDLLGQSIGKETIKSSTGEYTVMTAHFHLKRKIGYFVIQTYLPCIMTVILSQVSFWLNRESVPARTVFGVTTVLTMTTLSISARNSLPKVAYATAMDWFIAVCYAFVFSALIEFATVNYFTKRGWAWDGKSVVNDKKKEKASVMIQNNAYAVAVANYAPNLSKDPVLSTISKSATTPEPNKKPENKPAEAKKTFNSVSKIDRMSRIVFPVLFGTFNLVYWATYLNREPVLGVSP
T3 sequence (P18507 whole entry): T1 sequence (P18507 whole entry)
T3 sequence (P28472 whole entry): T1 sequence (P28472 whole entry)

[5] = target: T4, Gamma-aminobutyric acid receptor subunit alpha-1/beta-3/gamma-2 (Homo sapiens, UniProt P14867+P18507+P28472); experiment: Binding affinity for human recombinant gamma-aminobutyric-acid (GABA) A receptor alpha-1-beta-3-gamma-2
T4 sequence (P14867 whole entry): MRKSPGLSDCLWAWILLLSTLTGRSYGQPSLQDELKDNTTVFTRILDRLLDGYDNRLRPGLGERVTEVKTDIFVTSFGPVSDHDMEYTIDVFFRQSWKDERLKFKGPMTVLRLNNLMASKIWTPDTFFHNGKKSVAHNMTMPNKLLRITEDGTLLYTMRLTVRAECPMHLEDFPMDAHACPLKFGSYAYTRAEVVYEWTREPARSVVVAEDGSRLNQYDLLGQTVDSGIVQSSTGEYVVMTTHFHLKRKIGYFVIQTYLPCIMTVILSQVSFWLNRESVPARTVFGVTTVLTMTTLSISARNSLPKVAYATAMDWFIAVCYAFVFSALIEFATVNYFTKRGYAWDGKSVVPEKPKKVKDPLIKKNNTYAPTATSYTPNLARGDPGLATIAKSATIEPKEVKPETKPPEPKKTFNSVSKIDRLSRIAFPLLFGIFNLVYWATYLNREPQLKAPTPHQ
T4 sequence (P18507 whole entry): T1 sequence (P18507 whole entry)
T4 sequence (P28472 whole entry): T1 sequence (P28472 whole entry)

Chain of Gamma-aminobutyric acid receptor subunit alpha-6/beta-3/gamma-2 (Q16445 whole entry, one chain of several): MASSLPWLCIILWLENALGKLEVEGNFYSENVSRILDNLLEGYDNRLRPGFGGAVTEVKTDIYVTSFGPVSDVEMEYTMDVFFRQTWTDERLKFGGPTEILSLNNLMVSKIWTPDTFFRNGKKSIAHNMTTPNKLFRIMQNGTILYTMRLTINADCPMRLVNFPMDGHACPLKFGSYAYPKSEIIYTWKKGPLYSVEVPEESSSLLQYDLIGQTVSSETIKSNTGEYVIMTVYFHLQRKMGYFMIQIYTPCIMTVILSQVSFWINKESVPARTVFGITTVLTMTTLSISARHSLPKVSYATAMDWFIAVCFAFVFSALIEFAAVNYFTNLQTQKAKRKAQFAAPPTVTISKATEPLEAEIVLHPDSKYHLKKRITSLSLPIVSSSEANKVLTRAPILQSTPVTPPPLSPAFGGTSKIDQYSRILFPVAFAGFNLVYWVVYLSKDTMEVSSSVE

| Compound | Ki [1] [nM] | Ki [2] [nM] | Ki [3] [nM] | Ki [4] [nM] | Ki [5] [nM] |
| --- | --- | --- | --- | --- | --- |
| CCOC(=O)c1[nH]cc2nc3ccccc3c-2c1COC | 4.9 | 10 | – | – | – |
| Clc1ccc2c(c1)[nH]c1c3c4ccccc4nc-3c[nH]c12 | 24 | – | > 10000 | 12 | – |
| COc1ccc2c(c1)[nH]c1c3c4ccccc4nc-3c[nH]c12 | – | – | > 10000 | 12 | – |
| CCOC(=O)c1[nH]cc2nc3ccc(OCc4ccccc4)cc3c-2c1COC [6-Benzyloxy-4-methoxymethyl-9H-beta-carboline-3-carboxylic acid ethyl ester] | 6 | – | – | – | – |
| COCc1c(C(=O)OC(C)C)[nH]cc2nc3ccc(OCc4ccccc4)cc3c1-2 [6-Benzyloxy-4-methoxymethyl-9H-beta-carboline-3-carboxylic acid isopropyl ester(Abecarnil)] | – | – | > 1000 | – | 12 |
| c1ccc2c(c1)[nH]c1c[nH]c3c4cccnc4nc-3c12 [7,12-Dihydro-1,5,7,12-tetraaza-indeno[1,2-a]fluorene] | 16 | – | > 10000 | 12 | – |
| c1ccc2c(c1)[nH]c1c[nH]c3c4ccncc4nc-3c12 [7,12-Dihydro-2,5,7,12-tetraaza-indeno[1,2-a]fluorene] | 31 | – | > 10000 | 24 | – |
